“And” between values parts separate entries of the source, which are not always exact repeats. Equal values may be shown once. Read-outs that look alike come from different tables or passages of the source.
What was measured:
[1] = Brain and plasma exposure following IV and PO administration to mice; assay type: in vivo; conditions: for Projected free brain @ 10 mpk / Brain Cmax @ 10 mpk: 10 mg/kg PO; for half-life / clearance: mouse, plasma; for clearance: read-out: IV PK Cl (converted); for brain Cmax exposure, fold higher than comparator 1 / projected free brain concentration, fold higher than comparator 1: comparator 1 data scaled for comparison
Experimental: Compounds were dosed in mice at either 10 mg/kg or 30 mg/kg PO, and were dosed at 1 mg/kg IV. Three animals for collection at each time point for plasma via bleeding at 0.25, 0.5, 1, 4, 12 and 24 h. Terminal bleeding for plasma and sampling for brain at 0.25, 0.5, 1, 4, 12 and 24 h (also three animals per brain exposure time point group). Total of six time points for plasma and six time points for brain.
Plasma: The animal was restrained manually at the designated time points, approximately 150 μL blood/time point was collected into K2EDTA tube via retro orbital puncture or cardiac puncture under anesthesia with Isoflurane. The blood sample was centrifuged (2000 g, 4° C., 5 min) to generate plasma within 30 min after bleeding.
Brain: At the designated time points, a mid-line incision was made in the animals scalp and the skin was retracted. Using small bone cutters and rongeurs, removed the skull overlying the brain. Removed the brain using a spatula and rinse with cold saline. Placed the brain in screw-top tubes, and then stored the tubes under −70° C. until analysis.

HDAC1 = HDAC1 (Homo sapiens (Human), UniProt Q13547); assay: HDAC1 enzymatic assay (Caliper LabChip, peptide deacetylation); assay type: biochemical; conditions: 17 hours, 25° C.
Sequence of HDAC1 (Q13547 whole entry): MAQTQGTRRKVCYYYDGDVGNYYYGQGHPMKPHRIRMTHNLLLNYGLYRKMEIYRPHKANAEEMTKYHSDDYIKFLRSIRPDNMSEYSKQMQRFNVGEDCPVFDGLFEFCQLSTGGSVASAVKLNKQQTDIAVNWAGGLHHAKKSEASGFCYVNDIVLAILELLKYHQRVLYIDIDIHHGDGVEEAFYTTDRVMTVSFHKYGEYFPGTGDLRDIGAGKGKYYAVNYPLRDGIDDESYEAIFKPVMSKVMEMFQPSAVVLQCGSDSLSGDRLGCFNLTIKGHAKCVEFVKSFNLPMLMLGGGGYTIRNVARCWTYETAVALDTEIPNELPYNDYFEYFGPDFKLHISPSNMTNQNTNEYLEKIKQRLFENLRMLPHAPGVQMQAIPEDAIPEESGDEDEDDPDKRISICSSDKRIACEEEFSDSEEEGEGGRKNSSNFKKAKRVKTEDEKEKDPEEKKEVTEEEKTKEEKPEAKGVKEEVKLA
Experimental: The following describes an assay protocol for measuring the deacetylation of a peptide substrate by the enzymes HDAC2 or HDAC1. Enzyme, substrate, and cofactors are combined in a well of a microtiter plate and incubated for […] at 25° C. At the end of the incubation, the reaction is quenched by the addition of an SDS-containing buffer. Substrate and product are separated and quantified electrophoretically using the microfluidic-based LabChip 3000 Drug Discovery System from Caliper Life Sciences. The peptide substrate used in this assay is FAM-TSRHK(AC)KL-CONH2 (FAM is carboxyfluorescein). Peptide should be >98% purity by Capillary Electrophoresis. • 1. To a well of a 384-well plate, add 5 μL of 2× enzyme buffer. Using Labcyte Echo 550, add 100 nl compound. Enzyme and compound may be pre-incubated at this time if desired. • 2. Add 5 μL of 2× substrate buffer. • 3. Incubate plate at 25° C. for 17 hours. • 4. Terminate reaction by adding 40 μL of 1.55× stop buffer. • 5. Create job on a Caliper LabChip® 3000 Drug Discovery System. • 6. Load the plate and start electrophoresis using blue laser (480 nm) for excitation and green CCD (520 nm) for detection (CCD2). Reaction time=17 hours; Reaction temperature=25° C.
1% DMSO (from compound) 1 μM FAM-TSRHK(AC)KL-CONH2 5 nM HDAC Enzyme (specific activity may vary from lot-to-lot, and enzyme concentration may need to be adjusted to yield˜10-20% conversion of substrate to product).
Substrate and product peptides present in each sample are separated electrophoretically using the LabChip 3000 capillary electrophoresis instrument. As substrate and product peptides are separated, two peaks of fluorescence are observed. Change in the relative fluorescence intensity of the substrate and product peaks is the parameter measured, reflecting enzyme activity. Capillary electrophoregramms (RDA acquisition files) are analyzed using HTS Well Analyzer software (Caliper Life Sciences). The […] in each sample is determined as the product to sum ratio (PSR): P/(S+P), where P is the peak height of the product peptide and S is the peak height of the substrate peptide. For each compound, enzyme activity is measured at various concentrations (12 concentrations of compound spaced by 3× dilution intervals). Negative control samples (0%-inhibition in the absence of inhibitor) and positive control samples (100%-inhibition, in the presence of 20 mM EDTA) are assembled in replicates of four and are used to calculate %-inhibition values for each compound at each concentration. Percent inhibition (Pinh) is determined using following equation: Pinh=(PSR0%−PSRinh)/(PSR0%−PSR100%)*100, where PSRinh is the product sum ratio in the presence of inhibitor, PSR0% is the average product sum ration in the absence of inhibitor and PSR100% is the average product sum ratio in 100%-inhibition control samples.
The IC50 values of inhibitors are determined by fitting the inhibition curves (Pinh versus inhibitor concentration) by 4 parameter sigmoidal dose-response model using XLfit 4 software (IBDS).
In the table, “A” indicates a […] of between 0.1 μM and 0.5 μM and “B” a Kd value of greater than 0.5 μM and less than or equal to 5.0 μM.

[2] = iv, 1 mg/kg, mice, 1 mg/kg IV, read-out: IV PK T1/2 (converted)
[3] = po, 10 mg/kg, mice, PO, read-out: PO T1/2 (converted)

Projected free brain @ 10 mpk ([1]; mice)	Brain Cmax @ 10 mpk ([1]; mice)	half-life [1, 2] [h]	half-life [1, 3] [h]	clearance ([1]; mice, 1 mg/kg IV) [mL/min/kg]	IC50 (HDAC1) [µM]	brain Cmax exposure, fold higher than comparator 1 [1] [fold]	projected free brain concentration, fold higher than comparator 1 [1] [fold]	PO T1/2 ([1]; mice, PO) [h]	SMILES
0.222 µM	279 ng/g	0.628	1.27	35.2	0.5 to 5	–	–	–	CCc1cc2c(cn1)CN(C(=O)Nc1nc(-c3cccnc3)ccc1N)C2 [Compound 8]
0.438 µM	760 ng/g	0.643	1.25	67.7	0.5 to 5	–	–	–	Cc1ncc2c(n1)CN(C(=O)Nc1nc(-c3ccc(F)s3)ccc1N)C2 [Compound 2]
0.324 µM	636 ng/g	3.11	2.05	7.02	0.5 to 5	–	–	–	Nc1ccc(-c2ccc(F)cc2)nc1NC(=O)N1Cc2cn(C3COC3)nc2C1 [Compound 1]
0.568 µM	1241 ng/g	2.07	2.54	24.8	0.5 to 5	~7	5	–	CCc1ncc2c(n1)CN(C(=O)Nc1nc(-c3ccc(F)cc3)ccc1N)C2 [Compound 17]
0.387 µM	526 ng/g	0.737	1.48	25	0.5 to 5	–	–	–	CCc1ncc2c(n1)CN(C(=O)Nc1nc(-c3cccs3)ccc1N)C2 [Compound 3]
0.403 µM	633 ng/g	2.09	3.22	14.3	0.5 to 5	4	4	–	Cc1ncc2c(n1)CN(C(=O)Nc1nc(-c3ccc(F)cc3)ccc1N)C2 [Compound 14]
0.386 µM	237 ng/g	0.513	3.67	29.5	–	–	–	–	Cc1cc2c(cn1)CN(C(=O)Nc1nc(-c3cccnc3)ccc1N)C2 [Compound 12]
0.302 µM	277 ng/g	2.81	2.33	5.9	0.5 to 5	–	–	–	Cc1ncc(-c2ccc(N)c(NC(=O)N3Cc4cn(CC(F)F)nc4C3)n2)s1 [Compound 5]
0.881 µM and 0.795 µM	1533 ng/g and 1383 ng/g	0.644	1.39	27.8	0.5 to 5	–	–	1.01	COCCn1cc2c(n1)CN(C(=O)Nc1nc(-c3ccc(F)cc3F)ccc1N)C2 [Compound 9]

Source: patent US10793567B2, “Bicyclic inhibitors of histone deacetylase” (Rodin Therapeutics, Inc., priority 2017, dated 2020)
